Assay results as given in the NIST ThermoML archive (doi:10.1016/j.fluid.2014.03.008).
± gives the expanded uncertainty stated by the source.

How the values were obtained:
[1] = Liquid; for mass density: 101.33 kPa, Vibrating tube method; for Normal boiling temperature: Ebulliometric method (Recirculating still)
[2] = refractive index (Na D-line) (dimensionless); conditions: 101.33 kPa, Liquid, Standard Abbe refractometry

Row | SMILES | mass density ([1]; 293.15 K) | Normal boiling temperature [1] | refractive index ([2]; 293.15 K) | mass density ([1]; 298.15 K) | refractive index ([2]; 298.15 K)
1 | CC(=O)c1ccccc1 [acetophenone] | 1027.9 ± 0.9 kg/m3 | 202.0 ± 0.2 °C | 1.5361 ± 0.012 | – | –
2 | O [water] | 999.7 ± 0.08 kg/m3 | 100.10 ± 0.2 °C | 1.3325 ± 0.012 | – | –
3 | CCCCCCCCO [octan-1-ol] | – | 195.1 ± 0.2 °C | 1.428 ± 0.012 | 825.95 ± 0.24 kg/m3 | –
4 | CCCC(=O)O [butanoic acid] | – | 163.7 ± 0.2 °C | 1.3982 ± 0.012 | 952.6 ± 0.24 kg/m3 | –
5 | CCCC(=O)OCC [ethyl butanoate] | – | 121.40 ± 0.2 °C | – | 873.25 ± 0.7 kg/m3 | 1.3891 ± 0.012
6 | CCOC(=O)CC(=O)OCC [diethyl 1,3-propanedioate] | 1055.25 ± 0.95 kg/m3 | 199.90 ± 0.2 °C | 1.4135 ± 0.012 | – | –
7 | CCCCC(=O)OCC [ethyl pentanoate] | 877.15 ± 0.24 kg/m3 | 146.2 ± 0.2 °C | 1.4125 ± 0.012 | – | –
